This is an account of results in patent publication US20040106681A1, “Dosage escalation and divided daily dose of anti-depressants to treat neurological disorders” (priority 2002, published 2004).

Where a name gives a salt, the structure may show the parent alone.

Data set [1] can be described thus: swim stress test, hot plate response latency (thermal nociception threshold). The class given is in vivo, Sprague-Dawley rats. Here is the method: (§1) The treatment groups of rats were the following: (1) stressed—forced swimming in 20 cm of water; (2) sham—swimming in 2-3 cm of water; (3) naive—left undisturbed in cage.
(§2) The rats were tested for thermal nociception threshold by hot plate response latency (in seconds). The rats were tested for muscle hyperalgesia by measuring grip strength (in kg) by algometer.
(§3) Data on hot plate response latency and grip strength was acquired on days 7 and 11.

Data set [2] in a line: swim stress test, grip strength (muscle hyperalgesia). The format is in vivo, Sprague-Dawley rats. Here is the method:
as §1, §2, §3

A short description of data set [3]: Example 2 12-week randomized, double-blind placebo-controlled dose escalation monotherapy trial in FMS. To be noted: for Intolerance (dose escalation failures, number of patients): 36 total patients. The class given is in vivo, human. On the procedure:
After an initial period when patients were washed off pain medication, centrally acting stimulants, antidepressants and sedative-hypnotics, a two-week baseline period was begun. […] All patients were escalated over a 4-week period in weekly steps from 25 mg daily, to 50, 100, and finally 200 mg daily, or until dose-limiting toxicity (DLT) was evident. The presence of DLT was evaluated by the study center each week prior to authorizing the patient to step up to the next higher dosage. In the event that DLT was evident, the patient was stabilized at the previously well-tolerated dosage, and remained on this dose for eight weeks at stable dose therapy. Patients who successfully reached the 200 mg daily dose were also then treated for an additional 8 weeks at that dose.
At any give dose level, milnacipran QD patients would receive the full dose of milnacipran in the morning and receive placebo at night. Milnacipran BID patients would receive the same total amount in a split dose given morning and evening. During the study, patents were asked to carry an electronic diary and record pain, fatigue, sleep, and functional information. The custom designed diary captured spontaneous pain data in several ways, including
(1) random daily prompts (the device notified the patient to record their current level of pain 4-5 times per day);
(2) a morning daily prompt querying about the previous 24-hours' pain;
(3) a Friday night weekly report asking about the patient's average pain for the past week.
The electronic assessments were supplemented with traditional pain, mood, and quality of life inventories during clinic visits. The diaries implemented an electronic version of the Gracely anchored logarithmic pain scale. This scale asks patients to choose between “extremely intense,” “very intense,” “intense,” “strong,” “slightly intense,” “barely strong,” “moderate,” “mild,” “very mild,” “weak,” “very weak,” “faint,” and “no pain” sensation to describe their pain.
During the 4th, 8th, and 12th week of treatment, patients visited the clinic, where a number of standard outcome measures including the SF-36, the McGill pain questionnaire, the Beck, the STPI, the fibromyalgia impact questionnaire, and several pain measures were administered. Safety information was also collected at these clinic visits.
The primary endpoint was defined as the change in pain score from baseline to endpoint based on pain scores collected on the patient electronic diary (PED). Endpoint was defined as week twelve for assessments with a single value (such as clinic measures) or the average of scores at weeks 11 and 12 for diary-based outcomes. “Responders” were defined as those patients an improvement in pain score of at least 30%.

The nature of data set [4]: Example 1 gradual dose escalation study in fibromyalgia. The format is in vivo, human. To be noted: out of approximately 70 treated; weekly escalation 25, 50, 100, 200 mg daily. The source says:
This study was undertaken to characterize the efficacy of milnacipran in treatment of fibromyalgia syndrome (FMS). A secondary objective was to evaluate the relationship between daily dose administered, frequency of dosing, and efficacy in treatment of FMS. […] In this study, daily dosages were gradually escalated.
Subjects who met the 1990 ACR criteria for fibromyalgia syndrome were eligible for enrollment. Patients recorded baseline symptoms for the first two weeks after washing off anti-depressants, hypnotics and certain other drugs that potentially could interfere with efficacy measurements. […] If the patient tolerated this dosage, they were stepped up to a 50 mg daily dosage for week two, 100 mg for week three, and 200 mg for week four, or a matching placebo. If dose-limiting toxicities were encountered during any given week, the patient was stepped down to the previous week's dosage and maintained at that dosage for the remainder of the study. Subjects continued to take their maximum tolerated dose (up to 200 mg) for an additional 8 weeks. Patients may receive a total of 12 weeks of medication. Dose-limited toxicity is defined as the occurrence of a drug-related grade 3-4 adverse event.
Efficacy was measured using FMS status assessments prior to receiving the first dose and during monthly clinic visits. […]

For data set [5] the following is noted: pretreatment; repeatedly stressed rats; cited from earlier work.
Setting [6] is: pretreatment, 10 or 30 mg/kg/day IP QD days 1-11, swim stress days 8-10.
Setting [7] is: treatment after swim stress, drug days 5-10, swim stress days 2-4.

For the compound `CCN(CC)C(=O)[C@@]1(c2ccccc2)C[C@H]1CN` (racemic) [milnacipran, (±)-cis-2-(aminomethyl)-N,N-diethyl-1-phenylcyclopropanecarboxamide hydrochloride], the “swim stress-induced reductions in hot plate latency” value in data set [1] (setting [6]) is recorded as “not prevented”. Further, in data set [1] (setting [7]), the “swim stress-induced reductions in hot plate response latency” value was “did not reverse”. Besides, the “stress-induced reduction in grip strength” value in data set [2] (setting [6]) is “prevented”. The “reduction in grip strength caused by repeated forced swim stress” value in data set [2] (setting [7]) is “did reverse”. Further, the “patient global pain score, mean value” in data set [3] (1-7 scale (1 very much improved, 4 unchanged, 7 very much worse), endpoint, 38 MIL patients, QD and BID pooled) amounted to 2.3. For the same compound, the “% Dose Intolerance” value in data set [3] (BID dosing) came to 6%; in data set [3] (QD dosing), 19%. The “Intolerance (dose escalation failures, number of patients)” value is 2 in data set [3] (BID dosing) and 7 in data set [3] (QD dosing). For the same compound, the “difference in Beck scores at endpoint versus placebo” value in data set [3] (FMS patients meeting definition of MDE, pooled milnacipran groups, p=0.03) is given as “significant”. The “daily sleep quality scores, improvement versus placebo” value in data set [3] (QD and BID, 12-week treatment) is reported as “No significant improvement”. Besides, in data set [3] (in vivo), the “worsening of sleep quality” value is recorded as “no worsening”. The “patient electronic diary (PED) pain scores of responders” value in data set [3] (milnacipran BID, weeks 2-6, dose escalation) is given as “improvement”. The “24-hour daily pain reported scores, BID versus QD” value in data set [3] (throughout 12-week treatment) is recorded as “BID dosing was more effective than QD dosing”. The “patients who failed to tolerate 200 mg/day” value in data set [4] is recorded as 9.

In the case of `CN(C)CCCN1c2ccccc2CCc2ccc(Cl)cc21` [clormipramine], the “development of cutaneous hyperalgesia” value in data set [5] is “prevent the development of cutaneous hyperalgesia”.

For the compound `CNCCC(Oc1ccc(C(F)(F)F)cc1)c1ccccc1.Cl` (racemic) [fluoxetine, (±)-N-methyl-3-phenyl-3-[(α,α,α-trifluoro-p-tolyl)oxy]propylamine hydrochloride], in data set [5], the “development of cutaneous hyperalgesia” value is listed as “prevent the development of cutaneous hyperalgesia”.
